This passage reports IC50 results from patent US20110112135A1, “Imidazo [1,2-A] Pyridine Compounds” (priority 2007, published 2011).

The structures appear in SMILES notation.

This experiment addresses T1, human LXRβ (Homo sapiens, UniProt P55055).
T1 construct: biotin (biotinylated); made in house; host or cells: E. coli (crude extract)
T1 sequence (P55055 1-460): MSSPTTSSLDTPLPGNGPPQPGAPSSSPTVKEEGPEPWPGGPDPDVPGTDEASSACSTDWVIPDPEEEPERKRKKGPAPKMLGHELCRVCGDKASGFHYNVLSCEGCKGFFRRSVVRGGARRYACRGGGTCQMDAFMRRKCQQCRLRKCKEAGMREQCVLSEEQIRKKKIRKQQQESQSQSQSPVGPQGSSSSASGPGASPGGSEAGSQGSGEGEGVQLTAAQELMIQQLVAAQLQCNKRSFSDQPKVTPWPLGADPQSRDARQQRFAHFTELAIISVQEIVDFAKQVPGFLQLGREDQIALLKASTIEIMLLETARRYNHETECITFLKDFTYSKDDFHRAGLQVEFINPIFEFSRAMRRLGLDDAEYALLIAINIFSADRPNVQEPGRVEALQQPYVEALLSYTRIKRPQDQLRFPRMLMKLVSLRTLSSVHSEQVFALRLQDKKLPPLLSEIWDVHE
As to the kind of experiment: Ligand-binding test procedure for human LXRβ (3H T0901317 tracer, flash plates). The note with it: biotinylated hLXRβ from E. coli extract; tracer 3H T0901317. As for the experimental part: I. Ligand-Binding Test Procedure for Human LXRβ.
Receptor source: E. coli extract from cells expressing biotinylated hLXRβ. Extract was made in a similar buffer as above, but with 50 mM TRIS.
Washed streptavidin and coated flash plates with wash buffer. Diluted receptor extract to give Bmax ˜4000 cpm and add to the wells. Wrapped the plates in aluminum foil and stored them at +4° C. over night.
Made a dilution series in DMSO of the test ligands. Made a 5 nM solution of the radioactive tracer in buffer. Mixed 250 μl diluted tracer with 5 μl of the test ligand from each concentration of the dilution series. Washed the receptor-coated flash plates. Added 200 μl per well of the ligand/radiolabel mixture to the receptor-coated flash plates. Wrapped the plates in aluminum foil and incubate at +4° C. over night.
Aspirated wells, and wash the flashed plates. Sealed the plate. Measured the remaining radioactivity in the plate.
On to `CCc1nc2c(C(F)(F)F)cccn2c1-c1ccc(-c2cccc(S(C)(=O)=O)c2)nc1` [Example 87, 2-ethyl-3-{6-[3-(methylsulfonyl)phenyl]pyridin-3-yl}-8-(trifluoromethyl)imidazo[1,2-a]pyridine], for which the IC50 (usually the point on the concentration scale where inhibition reaches its midpoint) stood at 8.33 µM.

`CCc1nc2c(Cl)cccn2c1-c1ccc(COc2cccc(S(C)(=O)=O)c2)cc1` [Example 112, 8-chloro-2-ethyl-3-(4-{[3-(methylsulfonyl)phenoxy]methyl}phenyl)imidazo[1,2-a]pyridine] yielded a half-maximal inhibitory concentration (IC50) of over 1 µM.

The compound `CS(=O)(=O)c1cccc(Oc2ccc(-c3c(C(F)(F)F)nc4c(C(F)(F)F)cccn34)cc2)c1` [Example 125, 3-{4-[3-(methylsulfonyl)phenoxy]phenyl}-2,8-bis(trifluoromethyl)imidazo[1,2-a]pyridine] gave an IC50 of 0.6 µM.

For `CCc1nc2c(C#N)cccn2c1-c1ccc(Oc2cccc(S(C)(=O)=O)c2)cc1` [Example 104, 2-ethyl-3-{4-[3-(methylsulfonyl)phenoxy]phenyl}imidazo[1,2-a]pyridine-8-carbonitrile], the IC50 is over 1 µM.

Take `CC(C)NCc1nc2c(C(F)(F)F)cccn2c1-c1cccc(Oc2cccc(S(C)(=O)=O)c2)c1` [Example 136, N-{[3-{3-[3-(methylsulfonyl)phenoxy]phenyl}-8-(trifluoromethyl)imidazo[1,2-a]pyridin-2-yl]methyl}propan-2-amine]: the half-inhibitory concentration (IC50) was over 1 µM.

`CCc1nc2c(C#N)cccn2c1-c1ccc(Oc2cccc(S(=O)(=O)CC)c2)cc1` [Example 107, 2-ethyl-3-{4-[3-(ethylsulfonyl)phenoxy]phenyl}imidazo[1,2-a]pyridine-8-carbonitrile] showed an IC50 of over 1 µM.

On to `CCS(=O)(=O)c1cccc(Oc2ccc(-c3c(C(C)C)nc4c(C#N)cccn34)cc2)c1` [Example 124, 3-{4-[3-(ethylsulfonyl)phenoxy]phenyl}-2-(1-methylethyl)imidazo[1,2-a]pyridine-8-carbonitrile], for which the IC50 is over 1 µM.

Consider `CN1CCN(Cc2nc3c(C(F)(F)F)cccn3c2-c2cccc(Oc3cccc(S(C)(=O)=O)c3)c2)CC1` [Example 132, 2-[(4-methylpiperazin-1-yl)methyl]-3-{3-[3-(methylsulfonyl)phenoxy]phenyl}-8-(trifluoromethyl)imidazo[1,2-a]pyridine], for which the IC50 was over 1 µM.

Compound `CC(C)c1nc2c(C#N)cccn2c1-c1ccc(Oc2cccc(S(C)(=O)=O)c2)cc1` [Example 123, 2-(1-methylethyl)-3-{4-[3-(methylsulfonyl)phenoxy]phenyl}imidazo[1,2-a]pyridine-8-carbonitrile] returned an IC50 of over 1 µM.

Compound `CNCc1nc2c(C(F)(F)F)cccn2c1-c1cccc(Oc2cccc(S(C)(=O)=O)c2)c1` [Example 134, N-methyl-1-[3-{3-[3-(methylsulfonyl)phenoxy]phenyl}-8-(trifluoromethyl)imidazo[1,2-a]pyridin-2-yl]methanamine] yielded an IC50 of over 1 µM.

Turning to `CCc1nc2c(C#N)cccn2c1-c1cccc(COc2cccc(S(C)(=O)=O)c2)c1` [Example 110, 2-ethyl-3-(3-{[3-(methylsulfonyl)phenoxy]methyl}phenyl)imidazo[1,2-a]pyridine-8-carbonitrile], the IC50 is over 1 µM.
